Reference: patent publication US7374890B2, “Methods for identifying compounds that modulate ΔTRα2 activity” (University of Massachusetts, priority 2000, dated 2008)

Tests used:
[1] = molecular target: T1, ΔTRα2 (T4 Inactivating Protein; TIP) (Rattus norvegicus, UniProt P63059); assay: rT3 binding displacement in nuclei-free extracts of cultured rat astrocytes; conditions: ΔTRα2-containing nuclei-free astrocyte extracts; rT3 as ligand; read-out: Kd, displacement of rT3
T1 construct: ΔTRα2 is encoded by exons 8-10 resulting in an approximately 25 kd protein
Protocol: The properties of thyroid hormone binding to non-nuclear components of the cell were examined using ΔTRα2 (T4 Inactivating Protein; TIP)-containing, nuclei-free extracts of cultured rat astrocytes. […] Both rT3 and T4 specifically displace rT3 with Kd's of approximately 0.3-0.5 nM.

ΔTRα2 = molecular target: T2, ΔTRα2 (Rattus norvegicus, UniProt P63059); assay: [125I]rT3 displacement from cell-free translated ΔTRα2; assay type: binding; conditions: cell-free translated polypeptide
T2 sequence (P63059 256-492): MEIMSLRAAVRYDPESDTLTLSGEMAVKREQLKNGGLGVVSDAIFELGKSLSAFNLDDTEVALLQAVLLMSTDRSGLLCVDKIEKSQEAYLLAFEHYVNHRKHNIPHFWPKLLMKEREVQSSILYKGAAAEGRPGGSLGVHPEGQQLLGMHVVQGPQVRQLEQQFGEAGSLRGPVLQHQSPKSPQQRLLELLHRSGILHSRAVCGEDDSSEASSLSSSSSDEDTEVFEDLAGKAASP
Description: ΔTRα1 and ΔTRα2 polypeptides were synthesized by cell-free translation of appropriate segments of the rat ΔTRα1 and ΔTRα2 cDNA using the coupled transcription-translation kit from Promega® (TNT) according to the manufacturer's instructions.

[2] = molecular target: binding of p29^GFP vesicles to F-actin; assay: modified in vitro actin binding assay with p29^GFP-labeled vesicles; assay type: biochemical, rat; conditions: 0-100 nM, 20 minutes at 37° C.; read-out: EC50, increase in quantity of p29^GFP bound to F-actin
Protocol: To define the specific region(s) of the myosin V tail that interact with the p29 vesicle, a series of deletion mutations were created based on the dominant negative effect of exogenous myosin V tail on p29 vesicle binding. Competition analysis of the myosin V deletion mutations on T4-dependent binding of p29 vesicles to F-actin was performed using a modified in vitro assay in which a GFP-tagged p29 fusion protein (p29^GFP) replaced the radioaffinity labeled native p29 (Farwell et al., 1990, J. Biol. Chem. 265:18546-18553; Farwell et al., 1993, J. Biol. Chem. 268:5055-5062). This allowed direct evaluation of the binding of fluorescent vesicles to F-actin without affinity radiolabeling of the p29 and subsequent SDS-PAGE analysis.
Specific fluorescence at 510 nm (excitation, 488 nm) was then determined in the resuspended Triton-insoluble pellets.
To determine if the myosin V tail could be captured by the p29^GFP vesicle, an exogenous myosin V^tail was introduced into astrocytes constitutively expressing p29^GFP by infection with Ad5-ΔMyo V^tail virus particles and examined the effects of T4 on the binding of the myosin V^tail to immunopurified p29^GFP vesicles. Astrocytes expressing p29^GFP were grown in serum-free media and treated for 16 hours with 1 mM bt2cAMP and 100 nM hydrocortisone. A separate pool of astrocytes was treated in serum-free media supplemented with 10 μM retinoic acid. Cells were collected by scraping, and lysed by two freeze-thaw cycles. […] Triton-soluble (vesicle) and Triton-insoluble (F-actin) fractions were separated by microflige centrifugation. Triton pellets were resuspended in 300 μl of PBS and fluorescence at 510 nm (excitation 488 nm) determined and relative fluorescence was reported as arbitrary units. Cells were treated with 10 nM T4 for twenty minutes and a Triton-soluble supernatant was prepared. Vesicles containing the p29^GFP were immunoprecipitated by anti-GFP IgG (2 μg/ml) and protein in the immunoprecipitates were resolved by SDS-PAGE. Immunoblot analysis of vesicle-associated myosin V was performed using the anti-myosin V antibody directed against the C-terminus.
The quantity of each mutant protein synthesized was determined by [^35 S]-methionine incorporation. Astrocytes expressing p29^GFP were grown in serum-free media and treated for 16 hours with […] bt2cAMP and 100 nM hydrocortisone. p29^GFP V-lysate and F-lysate were prepared as described herein. 100 μg aliquots of p29^GFP V-lysate and F-lysate were pre-incubated, in triplicate, for 20 minutes at 37° C. in the presence of individual Δ myosin V mutant proteins (˜2-3 pmol polypeptide/50 μl mixture) were added to the actin-binding assay and pre-incubated for 20 minutes at 37° C. T4 (10 nM) was then added, the mixtures incubated for 20 minutes at 37° C., and F-actin bound, fluorescent p29^GFP vesicles were then isolated in the Triton-insoluble pellet.
V lysates prepared from astrocytes over-expressing p29^GFP were pre-incubated for 30 minutes at room temperature with antisera raised against ΔTRα2, ΔTRα1, the C-terminus of MyoV (encoded by MyoV^tail, FIG. 5), the coiled-coil region of MyoV (encoded by MyoV^coil-coil, FIG. 5) and GFP (green fluorescent protein). T4 (10 nM) and actin fiber-containing F-lysate was then added, the mixtures incubated at 37° C. for 20 minutes, and the Triton-insoluble fraction isolated by centrifugation.

astrocytes = assay: subcellular distribution of immunoreactive TRα2-derived proteins in cultured astrocytes; assay type: cell-based, rat; conditions: serum-free medium, treated 20 minutes, 0.1% bovine serum albumin carrier
Description: The subcellular distribution of immunoreactive thyroid hormone receptor-derived proteins in primary brain cell cultures and in cultured astrocytes was examined. Primary brain cell cultures were fixed with 0.4% paraformaldehyde, permeabilized with Triton X-100®, and stained for TRα-derived proteins using specific antisera directed against the unique C-termini of TRα1 and TRα2 proteins, and visualized by staining with a secondary tagged antibody. Consistent with previous observations (Kolodny et al., 1985, Endocrinol. 117: 1848-1857), immunoreactive TRα1 proteins were found in the nuclei of astrocytes and neuronal cells. However, TRα2-derived proteins were not localized to the nucleus in either astrocytes or neurons, but appeared as donut shaped structures located throughout the astrocyte or as discreet punctate signals along neuronal fibers. This latter pattern is diagnostic for synapses in neuronal cultures (Wong et al., 1999, Neurosci. 89:221-233), and is consistent with the presence of ΔTRα2-derived protein in nerve terminals.
The subcellular distribution of immunoreactive TRα2-derived proteins in cultured astrocytes was influenced by the presence of either T4 or rT3. In these experiments astrocytes were grown in serum-free medium, treated for 20 minutes with either […] or rT3, and fixed, permeabilized, and stained as described above. […]

T1 sequence (P63059 whole entry, stated change not applied): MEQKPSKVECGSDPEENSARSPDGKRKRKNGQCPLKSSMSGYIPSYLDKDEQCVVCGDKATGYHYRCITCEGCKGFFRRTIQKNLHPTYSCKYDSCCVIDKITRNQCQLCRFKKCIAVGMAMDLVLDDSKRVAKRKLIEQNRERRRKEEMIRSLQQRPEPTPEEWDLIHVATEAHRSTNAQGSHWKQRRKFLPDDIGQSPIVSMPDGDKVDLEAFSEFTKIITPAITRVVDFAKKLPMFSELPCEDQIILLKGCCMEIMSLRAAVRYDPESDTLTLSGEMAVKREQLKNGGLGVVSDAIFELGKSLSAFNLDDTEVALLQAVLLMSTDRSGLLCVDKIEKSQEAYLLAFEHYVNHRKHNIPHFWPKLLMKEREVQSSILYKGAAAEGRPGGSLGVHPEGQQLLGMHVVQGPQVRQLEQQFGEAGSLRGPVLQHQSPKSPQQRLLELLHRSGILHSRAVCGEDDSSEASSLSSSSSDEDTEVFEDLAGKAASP

## N[C@@H](Cc1cc(I)c(Oc2cc(I)c(O)c(I)c2)c(I)c1)C(=O)O [T4, thyroxine]
[1]
  Kd: 0.3 to 0.5 nM
ΔTRα2
  Kd: 0.3 to 1 nM
[2]
  EC50: ~0.5 nM
astrocytes
  subcellular distribution of TRα2-derived proteins: coalescence of the TRα2-derived proteins around the perinuclear space
